Biological target: C5aR (Homo sapiens (Human), UniProt P21730)
Assay: Calcium mobilization (U937/C5aR or HEK293/C5aR cells, FLIPR)
Assay type: cell-based
Conditions: agonist human C5a at EC80, FLIPR
Experimental: U937/C5aR cells or HEK293/C5aR cells were washed by PBS and suspended in growth media at the density of 1×10^6 cells/ml. […] to the 384-well plate and culture for overnight. Transfer 250 nl compound solution to the cell plate using Echo, incubate for 60 min. Cells were added with Fluo-4 Direct™ dye and incubate for 50 min at 37° C. 5% CO2 and 10 m at room temperature. Place the cell plate into […] (Molecular Devices). Transfer 10 μl of 5-fold EC80 concentrations of agonist human C5a to the cell plates.

Sequence of C5aR (P21730 whole entry): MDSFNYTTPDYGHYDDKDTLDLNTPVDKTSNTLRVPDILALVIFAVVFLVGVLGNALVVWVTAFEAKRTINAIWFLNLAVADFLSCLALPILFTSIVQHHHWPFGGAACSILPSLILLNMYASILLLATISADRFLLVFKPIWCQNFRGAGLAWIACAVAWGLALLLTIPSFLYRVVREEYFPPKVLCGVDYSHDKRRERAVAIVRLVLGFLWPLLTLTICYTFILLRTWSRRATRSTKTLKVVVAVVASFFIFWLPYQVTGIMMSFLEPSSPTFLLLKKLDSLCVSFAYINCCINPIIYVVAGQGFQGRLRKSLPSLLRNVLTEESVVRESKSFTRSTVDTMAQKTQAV

Row | SMILES | IC50
1 | Cc1cccc(F)c1C(=O)N1[C@@H]2COC[C@@H]2CC(C(=O)Nc2cccnc2)[C@@H]1c1ccc(NC2CCOCC2)cc1 (mixture of isomers) [Compound 128, cis-1-(2-fluoro-6-methylbenzoyl)-N-(pyridin-3-yl)-2-(4-((tetrahydro-2H-pyran-4-yl)amino)phenyl)octahydrofuro[3,4-b]pyridine-3-carboxamide] | 2 to 10 µM
2 | Cc1cccc(F)c1C(=O)N1C2CCC[C@@H]2C[C@H](C(=O)Nc2cnc(-n3nccn3)c(Cl)c2)[C@@H]1c1ccc(NC2CCCC2)cc1 (relative stereo) [Compound 75, cis-N-(5-chloro-6-(2H-1,2,3-triazol-2-yl)pyridin-3-yl)-2-(4-(cyclopentylamino)phenyl)-1-(2-fluoro-6-methylbenzoyl)octahydro-1H-cyclopenta[b]pyridine-3-carboxamide] | > 10 µM
3 | Cc1ccc(NC(=O)[C@H]2C[C@H]3CCC[C@H]3N(C(=O)c3cnn(C)c3)C2c2ccc(NC3CCCC3)cc2)cc1C(F)(F)F (relative stereo) [Compound 112, cis-2-(4-(cyclopentylamino)phenyl)-1-(1-methyl-1H-pyrazole-4-carbonyl)-N-(4-methyl-3-(trifluoromethyl)phenyl)octahydro-1H-cyclopenta[b]pyridine-3-carboxamide] | > 10 µM
4 | Cc1cccc(F)c1C(=O)N1C(c2ccc(NC3CCN(C)CC3)cc2)C(C(=O)Nc2ccc3c(cnn3C)c2)C[C@@H]2CCC[C@@H]21 (relative stereo) [Compound 117, cis-1-(2-fluoro-6-methylbenzoyl)-N-(1-methyl-1H-indazol-5-yl)-2-(4-((1-methylpiperidin-4-yl)amino)phenyl)octahydro-1H-cyclopenta[b]pyridine-3-carboxamide] | 2 to 10 µM
5 | Cc1cccc(F)c1C(=O)N1C(c2ccc(NC3CCOCC3)cc2)C(C(=O)Nc2cnn(C)c2)C[C@@H]2COC[C@@H]21 (relative stereo) [Compound 127, cis-1-(2-fluoro-6-methylbenzoyl)-N-(1-methyl-1H-pyrazol-4-yl)-2-(4-((tetrahydro-2H-pyran-4-yl)amino)phenyl)octahydrofuro[3,4-b]pyridine-3-carboxamide] | 2 to 10 µM
6 | Cc1ccc(NC(=O)C2C[C@@H]3CN(CC(F)(F)F)C[C@@H]3N(C(=O)c3c(C)cccc3F)C2c2ccc(NC3CCCC3)cc2)cc1C(F)(F)F (relative stereo) [Compound 206, cis-2-(4-(cyclopentylamino)phenyl)-1-(2-fluoro-6-methylbenzoyl)-N-(4-methyl-3-(trifluoromethyl)phenyl)-6-(2,2,2-trifluoroethyl)octahydro-1H-pyrrolo[3,4-b]pyridine-3-carboxamide] | 2 to 10 µM
7 | Cc1ccc(NC(=O)C2CC3CCCC3N(C(=O)c3c(C)cccc3F)C2c2ccc(NC3CCCC3)cc2)cc1C(F)(F)F (stereo in doubt) [Compound 48, (2S,3R,4aS,7aS)-2-(4-(cyclopentylamino)phenyl)-1-(2-fluoro-6-methylbenzoyl)-N-(4-methyl-3-(trifluoromethyl)phenyl)octahydro-1H-cyclopenta[b]pyridine-3-carboxamide] | 2 to 10 µM
8 | Cc1ccc(NC(=O)[C@@H]2CCCN(c3ccncn3)[C@H]2c2ccc(NC3CCCC3)cc2)cc1C(F)(F)F [Compound 3, (2R,3R)-2-(4-(cyclopentylamino)phenyl)-N-(4-methyl-3-(trifluoromethyl)phenyl)-1-(pyrimidin-4-yl)piperidine-3-carboxamide] | 2 to 10 µM
9 | Cc1cc(C)cc(S(=O)(=O)N2CCC[C@H](C(=O)Nc3ccc(C)c(C(F)(F)F)c3)[C@@H]2c2ccc(NC3CCCC3)cc2)c1 [Compound 12, (2R,3S)-2-(4-(cyclopentylamino)phenyl)-1-((3,5-dimethylphenyl)sulfonyl)-N-(4-methyl-3-(trifluoromethyl)phenyl)piperidine-3-carboxamide] | > 10 µM
10 | COC(=O)c1cccc(C)c1S(=O)(=O)N1CCC[C@H](C(=O)Nc2ccc(C)c(C(F)(F)F)c2)[C@@H]1c1ccc(NC2CCCC2)cc1 [Compound 21, methyl 2-(((2R,3S)-2-(4-(cyclopentylamino)phenyl)-3-((4-methyl-3-(trifluoromethyl)phenyl)carbamoyl)piperidin-1-yl)sulfonyl)-3-methylbenzoate] | > 10 µM
11 | COC(=O)c1ccccc1S(=O)(=O)N1CCC[C@H](C(=O)Nc2ccc(C)c(C(F)(F)F)c2)[C@@H]1c1ccc(NC2CCCC2)cc1 [Compound 31, methyl 2-(((2R,3S)-2-(4-(cyclopentylamino)phenyl)-3-((4-methyl-3-(trifluoromethyl)phenyl)carbamoyl)piperidin-1-yl)sulfonyl)benzoate] | 2 to 10 µM
12 | Cc1ccc(NC(=O)[C@@H]2CCC3CCc4ccccc4C(=O)N3[C@@H]2c2ccc(NC3CCCC3)cc2)cc1C(F)(F)F (stereo partly drawn) [Compound 45, (3R,4S)-4-(4-(cyclopentylamino)phenyl)-N-(4-methyl-3-(trifluoromethyl)phenyl)-6-oxo-1,2,3,4,6,11,12,12a-octahydrobenzo[e]pyrido[1,2-a]azepine-3-carboxamide] | 2 to 10 µM
13 | Cc1cccc(F)c1C(=O)N1[C@@H]2CCC[C@@H]2C[C@H](C(=O)NC2CCN(C)CC2)[C@@H]1c1ccc(NC2CCCC2)cc1 [Compound 53, (2R,3S,4aR,7aR)-2-(4-(cyclopentylamino)phenyl)-1-(2-fluoro-6-methylbenzoyl)-N-(1-methylpiperidin-4-yl)octahydro-1H-cyclopenta[b]pyridine-3-carboxamide] | 2 to 10 µM
14 | Cc1ccc(NC(=O)[C@H]2CCCN(Cc3c(C)cccc3F)[C@H]2c2ccc(NC3CCCC3)cc2)cc1C(F)(F)F [Compound 159, (2R,3S)-2-(4-(cyclopentylamino)phenyl)-1-(2-fluoro-6-methylbenzyl)-N-(4-methyl-3-(trifluoromethyl)phenyl)piperidine-3-carboxamide] | 2 to 10 µM
15 | Cc1ccc(NC[C@H]2CCCN(C(=O)c3c(C)cccc3F)[C@H]2c2ccc(NC3CCCC3)cc2)cc1C(F)(F)F [Compound 160, ((2R,3R)-2-(4-(cyclopentylamino)phenyl)-3-(((4-methyl-3-(trifluoromethyl)phenyl)amino)methyl)piperidin-1-yl)(2-fluoro-6-methylphenyl)methanone] | 2 to 10 µM
16 | Cc1ccc(NC(=O)[C@H]2CCCN(c3ncnc4ccccc34)[C@H]2c2ccc(N(C(=O)OCc3ccccc3)C3CCCC3)cc2)cc1C(F)(F)F [Compound 163, benzyl cyclopentyl(4-((2R,3S)-3-((4-methyl-3-(trifluoromethyl)phenyl)carbamoyl)-1-(quinazolin-4-yl)piperidin-2-yl)phenyl)carbamate] | 2 to 10 µM
17 | Cc1ccc(NC(=O)[C@H]2CCCN(c3nccc4nccnc34)[C@H]2c2ccc(N(C(=O)OCc3ccccc3)C3CCCC3)cc2)cc1C(F)(F)F [Compound 165, benzyl cyclopentyl(4-((2R,3S)-3-((4-methyl-3-(trifluoromethyl)phenyl)carbamoyl)-1-(pyrido[3,4-b]pyrazin-5-yl)piperidin-2-yl)phenyl)carbamate] | 2 to 10 µM
18 | Cc1ccc(NC(=O)[C@H]2CCCN(c3ncnc4cnccc34)[C@H]2c2ccc(N(C(=O)OCc3ccccc3)C3CCCC3)cc2)cc1C(F)(F)F [Compound 167, benzyl cyclopentyl(4-((2R,3S)-3-((4-methyl-3-(trifluoromethyl)phenyl)carbamoyl)-1-(pyrido[3,4-d]pyrimidin-4-yl)piperidin-2-yl)phenyl)carbamate] | 2 to 10 µM
19 | Cc1ccc(NC(=O)[C@H]2CCCN[C@H]2c2ccc(N(c3nccc4scnc34)C3CCCC3)cc2)cc1C(F)(F)F [Compound 169, (2R,3S)-2-(4-(cyclopentyl(thiazolo[4,5-c]pyridin-4-yl)amino)phenyl)-N-(4-methyl-3-(trifluoromethyl)phenyl)piperidine-3-carboxamide] | 2 to 10 µM
20 | Cc1ccc(NC(=O)[C@@H]2CCCN[C@H]2c2ccc(N(c3nccc4cccnc34)C3CCCC3)cc2)cc1C(F)(F)F [Compound 171, (2R,3R)-2-(4-(cyclopentyl(1,7-naphthyridin-8-yl)amino)phenyl)-N-(4-methyl-3-(trifluoromethyl)phenyl)piperidine-3-carboxamide] | 2 to 10 µM
21 | Cc1ccc(NC(=O)[C@H]2CCCN[C@H]2c2ccc(N(c3nccc4nccnc34)C3CCCC3)cc2)cc1C(F)(F)F [Compound 172, (2R,3S)-2-(4-(cyclopentyl(pyrido[3,4-b]pyrazin-5-yl)amino)phenyl)-N-(4-methyl-3-(trifluoromethyl)phenyl)piperidine-3-carboxamide] | 2 to 10 µM
22 | Cc1ccc(NC(=O)[C@H]2CCCN[C@H]2c2ccc(N(c3nccc4ccsc34)C3CCCC3)cc2)cc1C(F)(F)F [Compound 173, (2R,3S)-2-(4-(cyclopentyl(thieno[2,3-c]pyridin-7-yl)amino)phenyl)-N-(4-methyl-3-(trifluoromethyl)phenyl)piperidine-3-carboxamide] | 2 to 10 µM
23 | Cc1ccc(NC(=O)[C@@H]2CCCN[C@H]2c2ccc(N(c3ncnc4cccnc34)C3CCCC3)cc2)cc1C(F)(F)F [Compound 174, (2R,3R)-2-(4-(cyclopentyl(pyrido[3,2-d]pyrimidin-4-yl)amino)phenyl)-N-(4-methyl-3-(trifluoromethyl)phenyl)piperidine-3-carboxamide] | 2 to 10 µM
24 | Cc1ccc(NC(=O)[C@H]2CCCN[C@H]2c2ccc(N(c3nccc4ccccc34)C3CCCC3)cc2)cc1C(F)(F)F [Compound 175, (2R,3S)-2-(4-(cyclopentyl(isoquinolin-1-yl)amino)phenyl)-N-(4-methyl-3-(trifluoromethyl)phenyl)piperidine-3-carboxamide] | 2 to 10 µM
25 | Cc1ccc(NC(=O)[C@H]2CCCN[C@H]2c2ccc(N(c3ncnc4cccnc34)C3CCCC3)cc2)cc1C(F)(F)F [Compound 176, (2R,3S)-2-(4-(cyclopentyl(pyrido[3,2-d]pyrimidin-4-yl)amino)phenyl)-N-(4-methyl-3-(trifluoromethyl)phenyl)piperidine-3-carboxamide] | 2 to 10 µM
